Data as given in the supplement of paper PMC10307832.

Columns and labels:
Assay in all cases: relative viability (nuclei count vs DMSO), 5 days (fraction); higher = more cells survive
[1] = compound: O=C(O)c1ccc2c(c1)nc(Nc1cccc(Cl)c1)c1ccncc12 [Silmitasertib] + CS(=O)(=O)N1CCN(Cc2cc3nc(-c4cccc5[nH]ncc45)nc(N4CCOCC4)c3s2)CC1 [Pictilisib] (partner 1 µM)
Summary of the method: (§1)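 Lung cancer cell lines were pin-tool dosed in 1536-well plates on the day after seeding, with either a lone drug or a fixed anchor-drug dose plus five library-drug doses (not always all listed) in √10 steps. Nuclei were counted on 4× images after 5 days. Relative viability is the ratio of treated-well to vehicle-well nuclei counts, with each value a median of duplicate plates.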

[2] = compound: O=C(O)c1ccc2c(c1)nc(Nc1cccc(Cl)c1)c1ccncc12 [Silmitasertib] + C[C@@H](Oc1cc(-c2cnn(C3CCNCC3)c2)cnc1N)c1c(Cl)ccc(F)c1Cl [Crizotinib] (partner 1 µM)
Summary of the method: as §1

[3] = compound: O=C(O)c1ccc2c(c1)nc(Nc1cccc(Cl)c1)c1ccncc12 [Silmitasertib] + N=C(N)NC(=N)NCCc1ccccc1 [Phenformin] (partner 250 µM)
Summary of the method: as §1

[4] = compound: O=C(O)c1ccc2c(c1)nc(Nc1cccc(Cl)c1)c1ccncc12 [Silmitasertib] + C[C@]1(O)C[C@@H](c2nc(-c3ccc4ccc(-c5ccccc5)nc4c3)c3c(N)nccn32)C1 [Linsitinib] (partner 1 µM)
Summary of the method: as §1

[5] = compound: O=C(O)c1ccc2c(c1)nc(Nc1cccc(Cl)c1)c1ccncc12 [Silmitasertib] + CCNC(=O)c1noc(-c2cc(C(C)C)c(O)cc2O)c1-c1ccc(CN2CCOCC2)cc1 [Luminespib] (partner 0.01 µM)
Summary of the method: as §1

Cell Line	relative viability ([1]; first compound 0.04 µM)	relative viability ([1]; first compound 1.265 µM)	relative viability ([1]; first compound 4 µM)	relative viability ([2]; first compound 0.04 µM)	relative viability ([2]; first compound 1.265 µM)	relative viability ([2]; first compound 4 µM)	relative viability ([3]; first compound 0.04 µM)	relative viability ([3]; first compound 1.265 µM)	relative viability ([3]; first compound 4 µM)	relative viability ([4]; first compound 0.04 µM)	relative viability ([4]; first compound 1.265 µM)	relative viability ([4]; first compound 4 µM)	relative viability ([5]; first compound 0.04 µM)	relative viability ([5]; first compound 1.265 µM)	relative viability ([5]; first compound 4 µM)	relative viability ([1]; first compound 0.4 µM)	relative viability ([2]; first compound 0.4 µM)	relative viability ([3]; first compound 0.4 µM)	relative viability ([4]; first compound 0.4 µM)	relative viability ([5]; first compound 0.4 µM)
NCI-H838	0.463	0.434	0.359	0.941	0.861	0.511	0.708	0.513	0.362	1.09	0.899	0.608	0.29	0.338	0.217					
NCI-H3122	0.694	0.634	0.644	0.305	0.256	0.262	0.416	0.433	0.47	0.957	0.948	1.15	0.104	0.0992	0.123	0.53	0.262	0.365	0.953	0.0852
SK-MES-1	0.412	0.456	0.373	1.1	1.06	0.656	0.752	0.434	0.27	1.18	1.11	1.09	0.821	0.397	0.213	0.439	1.05	0.582	1.13	0.801
NCI-H1944	0.361	0.364	0.381	1.1	0.965	1.03	0.21	0.22	0.186	1.17	0.968	1.25	0.549	0.765	0.793	0.442	0.856	0.211	1.15	0.653
LK-2	0.618	0.514	0.499	0.198	0.245	0.187	0.485	0.415	0.271	0.557	0.365	0.451	0.168	0.174	0.169	0.52	0.333		0.474	
PC-3 [JPC-3]	0.837	0.586	0.708	0.968	1.03	0.999	0.475	0.468	0.424	0.98	1.03	0.986	0.716	0.746	0.654	0.672	0.868	0.398	0.964	0.571
COR-L23	0.945	0.636	0.248	0.665	0.727	0.629	0.51	0.483	0.314	1.02	0.821	0.638	0.716	0.646	0.678	0.586	0.67	0.372	0.843	0.66
NCI-H1355	0.419	0.367	0.293	1.07	1.1	1.07	0.457	0.46	0.43	0.857	0.768	0.796	0.776	0.69	0.576					
NCI-H460	0.424	0.314	0.3	0.91	0.755	0.865	0.523	0.583	0.414	0.779	0.782	0.899	0.0354	0.0278	0.0318	0.412	0.866	0.525	0.84	0.0304
NCI-H1993	0.818	0.854	0.916	0.956	0.803	0.644	0.547	0.543	0.566	0.597	0.695	0.758	0.874	0.621	0.617	0.818	0.899	0.447	0.747	0.697
ChaGo-K-1	1.26	0.607	0.486	1.35	1.07	0.931	0.532	0.446	0.319				0.586	0.566	0.607	0.59	1	0.349		0.57
HCC-15	0.772	0.493	0.238	0.804	0.71	0.575	0.541	0.398	0.25	0.882	0.671	0.475	0.368	0.281	0.207	0.535	0.603	0.39	0.681	0.204
NCI-H23	0.54	0.38	0.26	0.51	0.384	0.362	0.639	0.675	0.403	0.662	0.448	0.582	0.217	0.215	0.217					0.197
NCI-H1395	0.623	0.587	0.427				0.495	0.49	0.373	1.14	1	1.01	0.635	0.539	0.713	0.492		0.436	0.919	0.562
NCI-H1666	0.465	0.321	0.307	0.918	0.691	0.508	0.571	0.607	0.511	0.919	0.682	0.536	1.04	0.708	0.634	0.499	0.787	0.582	0.571	0.955
NCI-H2405	0.586	0.379	0.28	0.822	0.745	0.803	0.435	0.34	0.301	1.16	0.856	0.887	0.75	0.757	0.71	0.388	0.692	0.34	0.783	0.507
NCI-H2009	1.07	0.427	0.244	1.09	1.1	0.97	0.542	0.374	0.312	1.27	1.16	0.77	1.06	0.971	0.604	0.701	1.04	0.487	1.2	1.1
